Targets include Cytochrome P450 2C9 (Homo sapiens, UniProt P11712); Cytochrome P450 3A4 (Homo sapiens, UniProt P08684); Cytochrome P450 2C19 (Homo sapiens, UniProt P33261); Cytochrome P450 2D6 (Homo sapiens, UniProt P10635).
In data set [1] the target is T1, Sodium-dependent serotonin transporter (Homo sapiens, UniProt P31645). Kind of data set: Ratio of duloxetine IC50 to compound IC50 for serotonin reuptake at human SERT expressed in HEK293 cells at 0.1 uM after 15 mins by fluorescence neurotransmitter transporter assay. It counts as cell-based.
Target sequence in this assay (P31645 whole entry, looked up): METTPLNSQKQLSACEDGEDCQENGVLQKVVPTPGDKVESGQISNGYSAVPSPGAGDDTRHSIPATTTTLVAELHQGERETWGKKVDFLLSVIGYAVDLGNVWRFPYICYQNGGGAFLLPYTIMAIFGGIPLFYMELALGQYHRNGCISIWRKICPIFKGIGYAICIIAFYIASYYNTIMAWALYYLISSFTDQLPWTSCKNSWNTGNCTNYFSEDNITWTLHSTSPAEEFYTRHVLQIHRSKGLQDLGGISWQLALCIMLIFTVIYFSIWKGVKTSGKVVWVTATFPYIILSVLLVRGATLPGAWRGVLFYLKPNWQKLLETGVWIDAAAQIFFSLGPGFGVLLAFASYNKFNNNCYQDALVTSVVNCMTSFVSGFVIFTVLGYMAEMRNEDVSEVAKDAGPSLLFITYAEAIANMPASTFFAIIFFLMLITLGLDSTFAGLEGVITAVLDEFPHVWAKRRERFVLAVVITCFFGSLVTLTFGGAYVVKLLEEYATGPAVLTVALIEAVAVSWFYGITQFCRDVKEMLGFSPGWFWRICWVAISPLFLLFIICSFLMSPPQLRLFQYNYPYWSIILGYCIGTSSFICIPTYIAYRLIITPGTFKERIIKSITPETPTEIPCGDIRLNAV
The target of data set [2] is T2, Sodium-dependent noradrenaline transporter (Homo sapiens, UniProt P23975). Kind of data set: Ratio of venlafaxine IC50 to compound IC50 for norepinephrine reuptake at human NET expressed in HEK293 cells at 0.1 uM after 15 mins by fluorescence neurotransmitter transporter assay. It counts as cell-based.
T2 sequence (P23975 whole entry): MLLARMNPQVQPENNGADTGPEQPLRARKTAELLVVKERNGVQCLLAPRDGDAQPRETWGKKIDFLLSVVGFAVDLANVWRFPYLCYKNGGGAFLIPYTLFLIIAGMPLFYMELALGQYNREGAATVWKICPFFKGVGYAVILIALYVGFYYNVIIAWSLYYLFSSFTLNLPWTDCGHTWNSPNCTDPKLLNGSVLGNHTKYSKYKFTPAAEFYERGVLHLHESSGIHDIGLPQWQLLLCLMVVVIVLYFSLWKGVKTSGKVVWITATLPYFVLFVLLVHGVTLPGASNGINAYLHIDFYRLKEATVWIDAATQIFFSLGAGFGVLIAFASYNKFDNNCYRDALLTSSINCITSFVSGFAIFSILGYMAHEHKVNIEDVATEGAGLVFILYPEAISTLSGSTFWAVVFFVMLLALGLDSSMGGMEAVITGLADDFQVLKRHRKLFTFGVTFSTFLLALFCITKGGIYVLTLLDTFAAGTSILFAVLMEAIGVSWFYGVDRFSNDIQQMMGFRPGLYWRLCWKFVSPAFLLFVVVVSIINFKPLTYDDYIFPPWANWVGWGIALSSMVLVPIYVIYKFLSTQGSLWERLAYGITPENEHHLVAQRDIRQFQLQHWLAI
In data set [3] the target is Sodium-dependent dopamine transporter (Homo sapiens, UniProt Q01959).
Chain of Sodium-dependent dopamine transporter (Q01959 whole entry): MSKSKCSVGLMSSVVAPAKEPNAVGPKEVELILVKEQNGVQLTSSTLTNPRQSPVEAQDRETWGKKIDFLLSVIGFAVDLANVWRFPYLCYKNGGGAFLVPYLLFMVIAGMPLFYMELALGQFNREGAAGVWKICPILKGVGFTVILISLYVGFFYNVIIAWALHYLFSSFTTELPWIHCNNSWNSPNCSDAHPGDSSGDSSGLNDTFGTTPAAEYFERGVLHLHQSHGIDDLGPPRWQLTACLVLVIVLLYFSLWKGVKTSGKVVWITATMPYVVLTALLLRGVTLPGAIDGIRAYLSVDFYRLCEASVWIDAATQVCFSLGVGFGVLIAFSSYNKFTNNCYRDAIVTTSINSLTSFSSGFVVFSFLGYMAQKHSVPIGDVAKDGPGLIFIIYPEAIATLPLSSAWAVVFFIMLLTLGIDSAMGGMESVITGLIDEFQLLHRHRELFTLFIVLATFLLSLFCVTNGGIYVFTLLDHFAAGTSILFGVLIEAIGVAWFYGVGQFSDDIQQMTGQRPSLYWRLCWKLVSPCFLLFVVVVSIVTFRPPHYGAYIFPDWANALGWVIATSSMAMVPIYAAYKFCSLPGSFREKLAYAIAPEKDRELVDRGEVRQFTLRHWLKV
Data set [4] deals with T1, Sodium-dependent serotonin transporter. It is filed as cell-based, HEK293.
Target sequence in this assay (P31645 whole entry): as the sequence (P31645 whole entry, looked up) above
For data set [5], the target named is T2, Sodium-dependent noradrenaline transporter. Kind of data set: Ratio of duloxetine IC50 to compound IC50 for norepinephrine reuptake at human NET expressed in HEK293 cells at 0.1 uM after 15 mins by fluorescence neurotransmitter transporter assay. It is filed as cell-based.
Data set [6] has as its target T1, Sodium-dependent serotonin transporter. To be noted: HEK293, at 10 µM.
Target sequence in this assay (P31645 whole entry, looked up): as above
In the next data set the target is T3, Cytochrome P450 1A2 (Homo sapiens, UniProt P05177).
T3 sequence (P05177 whole entry): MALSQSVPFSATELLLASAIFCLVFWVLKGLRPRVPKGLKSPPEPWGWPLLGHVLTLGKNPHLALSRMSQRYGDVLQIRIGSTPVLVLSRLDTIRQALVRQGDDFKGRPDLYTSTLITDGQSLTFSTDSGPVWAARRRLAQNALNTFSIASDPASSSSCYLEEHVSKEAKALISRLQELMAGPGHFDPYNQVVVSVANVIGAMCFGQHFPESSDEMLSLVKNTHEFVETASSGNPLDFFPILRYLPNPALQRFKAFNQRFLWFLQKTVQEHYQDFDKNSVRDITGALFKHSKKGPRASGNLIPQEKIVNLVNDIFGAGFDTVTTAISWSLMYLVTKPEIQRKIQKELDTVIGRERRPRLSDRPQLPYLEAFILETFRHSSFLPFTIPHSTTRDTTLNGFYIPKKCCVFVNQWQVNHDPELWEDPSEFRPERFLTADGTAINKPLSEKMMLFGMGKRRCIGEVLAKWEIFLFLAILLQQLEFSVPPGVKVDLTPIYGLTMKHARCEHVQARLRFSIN

Data set [7] addresses T2, Sodium-dependent noradrenaline transporter.
Data set [8] is described as follows: Stability in human liver microsomes assessed as compound remaining at 1 uM after 30 mins by LC/MS analysis. It counts as ADME. To be noted: read-out: Stability.
The target of data set [9] is T1, Sodium-dependent serotonin transporter. To be noted: HEK293, at 0.1 µM.
Target sequence in this assay (P31645 whole entry, looked up): as the sequence (P31645 whole entry, looked up) above
Data set [10] shares this target. Put plainly: Ratio of venlafaxine IC50 to compound IC50 for serotonin reuptake at human SERT expressed in HEK293 cells at 0.1 uM after 15 mins by fluorescence neurotransmitter transporter assay. It counts as cell-based.
Target sequence in this assay (P31645 whole entry, looked up): as the sequence (P31645 whole entry, looked up) above
Data set [11] shares this target. The note with it: HEK293, at 1 µM.
Target sequence in this assay (P31645 whole entry, looked up): as the sequence (P31645 whole entry, looked up) above
Another data set deals with CYP2C19 (Homo sapiens, UniProt P33261). Put plainly: in vitro. To be noted: recombinant CYP2C19.
Chain of CYP2C19 (P33261 whole entry): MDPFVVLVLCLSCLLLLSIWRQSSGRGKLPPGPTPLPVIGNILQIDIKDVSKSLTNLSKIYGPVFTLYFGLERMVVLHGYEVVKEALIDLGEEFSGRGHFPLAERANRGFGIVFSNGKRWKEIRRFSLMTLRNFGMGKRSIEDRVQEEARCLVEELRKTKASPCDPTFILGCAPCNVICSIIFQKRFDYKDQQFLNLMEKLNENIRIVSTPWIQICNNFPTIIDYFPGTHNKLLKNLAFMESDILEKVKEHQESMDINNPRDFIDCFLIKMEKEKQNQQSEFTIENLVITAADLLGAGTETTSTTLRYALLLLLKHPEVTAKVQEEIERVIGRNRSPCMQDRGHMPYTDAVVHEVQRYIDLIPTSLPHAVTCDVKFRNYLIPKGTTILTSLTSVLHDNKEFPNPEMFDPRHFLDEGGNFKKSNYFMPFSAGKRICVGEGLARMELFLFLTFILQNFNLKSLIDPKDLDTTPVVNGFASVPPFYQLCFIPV
For the next data set, the target named is CYP2D6 (Homo sapiens, UniProt P10635). Kind of data set: in vitro. The note with it: recombinant CYP2D6.
Chain of CYP2D6 (P10635 whole entry): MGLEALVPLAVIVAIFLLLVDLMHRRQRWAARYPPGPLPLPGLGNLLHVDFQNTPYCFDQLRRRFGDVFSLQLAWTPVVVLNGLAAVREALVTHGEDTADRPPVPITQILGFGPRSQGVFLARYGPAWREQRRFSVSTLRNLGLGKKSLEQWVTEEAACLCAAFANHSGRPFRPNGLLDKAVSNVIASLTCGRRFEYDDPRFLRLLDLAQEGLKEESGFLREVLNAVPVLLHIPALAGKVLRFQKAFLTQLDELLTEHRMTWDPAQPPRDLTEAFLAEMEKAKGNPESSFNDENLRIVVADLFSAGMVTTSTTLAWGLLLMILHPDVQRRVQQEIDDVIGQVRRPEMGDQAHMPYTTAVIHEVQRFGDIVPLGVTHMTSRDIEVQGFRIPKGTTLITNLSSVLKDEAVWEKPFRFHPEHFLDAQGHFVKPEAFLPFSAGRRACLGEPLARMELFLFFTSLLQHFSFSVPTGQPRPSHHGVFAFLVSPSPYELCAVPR
In a further data set the target is CYP3A4 (Homo sapiens, UniProt P08684). Put plainly: in vitro. The note with it: recombinant CYP3A4.
Chain of CYP3A4 (P08684 whole entry): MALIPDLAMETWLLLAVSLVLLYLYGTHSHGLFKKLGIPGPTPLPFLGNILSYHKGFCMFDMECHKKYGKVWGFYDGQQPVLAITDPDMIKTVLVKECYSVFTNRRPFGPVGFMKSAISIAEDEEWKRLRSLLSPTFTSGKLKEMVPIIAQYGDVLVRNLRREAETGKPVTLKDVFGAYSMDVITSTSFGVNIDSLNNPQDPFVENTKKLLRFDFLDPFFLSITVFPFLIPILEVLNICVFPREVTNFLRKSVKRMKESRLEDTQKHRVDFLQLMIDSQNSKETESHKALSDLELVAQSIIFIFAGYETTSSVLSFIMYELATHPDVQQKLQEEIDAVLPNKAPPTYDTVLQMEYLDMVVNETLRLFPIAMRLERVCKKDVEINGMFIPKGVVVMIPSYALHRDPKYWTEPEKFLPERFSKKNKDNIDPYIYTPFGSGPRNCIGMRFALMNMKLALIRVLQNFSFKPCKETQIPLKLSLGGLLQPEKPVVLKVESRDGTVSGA
A further data set concerns the target CYP2C9 (Homo sapiens, UniProt P11712). Put plainly: in vitro. To be noted: recombinant CYP2C9.
The next data set has as its target T4, CYP1A2 (Homo sapiens, UniProt P05177).
T4 sequence (P05177 whole entry): T3 sequence (P05177 whole entry)
Kind of data set: in vitro. To be noted: recombinant CYP1A2.

Data set [12] deals with Voltage-gated inwardly rectifying potassium channel KCNH2 (Homo sapiens, UniProt Q12809). Kind of data set: Inhibition of human ERG expressed in CHO-K1 cells by patch-clamp electrophysiology method. It counts as cell-based.

Molecules are shown by their SMILES. A value given as a limit tells only on which side of the number the result lay.

Chain of Cytochrome P450 2D6 (P10635 whole entry): as the sequence (P10635 whole entry) above
Chain of Cytochrome P450 3A4 (P08684 whole entry): as the sequence (P08684 whole entry) above
Chain of Cytochrome P450 2C19 (P33261 whole entry): as the sequence (P33261 whole entry) above

Take `Fc1ccc(OC(CC2CNC2)c2ccc(Cl)c(F)c2)cc1` (configuration not stated): the Ratio IC50 in [1], in data set [2], in data set [5] and in data set [10] was greater than 7 throughout. Moreover, the IC50 worked out at 2400 nM on Cytochrome P450 2C9; 143 nM in data set [3]; 58.1 nM in data set [4]; 400 nM against Cytochrome P450 3A4; 1300 nM against Cytochrome P450 2C19; 19000 nM against Cytochrome P450 1A2. Moreover, the IC50 came out at 32.5 nM in data set [7] and 1000 nM against Cytochrome P450 2D6. Moreover, the inhibition in data set [6] was found to be 100%; in data set [9], 72%; in [11], 100%. Besides, the remaining at 0.5 h, 1 µM in [8] turned out to be 85%.

For `Fc1cc(C(CC2CNC2)Oc2ccccc2Cl)ccc1Cl` (configuration not stated), the inhibition at 10 µM at CYP2C19 stood at 7.4%; on CYP2D6 it was 12%; at CYP3A4, 13%; on CYP2C9, 18%; on CYP1A2, 76%. The IC50 was 164 nM in data set [3], 37.5 nM in [4] and 30.8 nM in [7]. The figures for the inhibition in [6], in [9] and in data set [11] were 100%, 82% and 100%, respectively. The remaining at 0.5 h, 1 µM in data set [8] was 89%.

`Cc1cccc(OC(CC2CNC2)c2ccc(Cl)c(F)c2)c1` (configuration not stated): the inhibition at 10 µM on CYP2C19 amounted to 5.5%; at CYP2D6, 12%; at CYP3A4, 12%; on CYP2C9, 6.8%; at CYP1A2 it was 58%. Further, the IC50 is 80.4 nM in data set [3], 23 nM in [4] and 14.7 nM in data set [7]. Also, the inhibition in [6], in data set [9] and in data set [11] was 100% each time. Besides, the remaining at 0.5 h, 1 µM in [8] came to 36%.

For `Fc1cc(C(CC2CNC2)Oc2ccccc2F)ccc1Cl` (configuration not stated), the inhibition at 10 µM came out at 7% at CYP2C19; 9.6% on CYP2D6; 7.2% at CYP3A4; 12% at CYP2C9; 33% on CYP1A2. In addition, the Ratio IC50 in data set [1], in [2], in [5] and in data set [10] was greater than 7 throughout. The IC50 on Cytochrome P450 2C9 came out at 2200 nM; in data set [3], 63.9 nM; in data set [4], 46.3 nM; against Cytochrome P450 3A4, 710 nM; against Cytochrome P450 2C19 it was 250 nM; against Cytochrome P450 1A2, 44000 nM. In addition, the IC50 in [7] is 15.9 nM; in data set [12], 1410 nM; against Cytochrome P450 2D6, 8700 nM. The values for the inhibition in [6], in [9] and in data set [11] were 100%, 77% and 100%, respectively. Also, the remaining at 0.5 h, 1 µM in [8] is 71%.

As to `Fc1cc(C(CC2CNC2)Oc2cccc(Cl)c2)ccc1Cl` (configuration not stated), the inhibition at 10 µM on CYP2C19 is 3.3%; on CYP2D6, 7.9%; at CYP3A4, 13%; at CYP2C9 it was 4.2%; at CYP1A2, 40%. Moreover, the Ratio IC50 in data set [1], in data set [2], in data set [5] and in data set [10] was greater than 7 throughout. Also, the IC50 on Cytochrome P450 2C9 was determined as 1100 nM; in [3], 82.5 nM; in data set [4], 47.1 nM; on Cytochrome P450 3A4, 600 nM; on Cytochrome P450 2C19, 250 nM; at Cytochrome P450 1A2, 15000 nM. In addition, the IC50 turned out to be 30 nM in data set [7] and 530 nM on Cytochrome P450 2D6. Further, the inhibition in data set [6] amounted to 100%; in [9], 87%; in [11] it was 100%. Moreover, in data set [8], the remaining at 0.5 h, 1 µM was determined as 57%.

With `Fc1cccc(OC(CC2CNC2)c2ccc(Cl)c(F)c2)c1` (configuration not stated), the inhibition at 10 µM on CYP2C19 was 6.4%; at CYP2D6 it was 13%; at CYP3A4, 11%; at CYP2C9 it was 11%; on CYP1A2 it was 30%. In addition, the Ratio IC50 in [1], in data set [2], in [5] and in data set [10] was greater than 7 each time. In addition, the IC50 against Cytochrome P450 2C9 was 3100 nM; in [3], 35.6 nM; in data set [4], 36.6 nM; against Cytochrome P450 3A4, 510 nM; against Cytochrome P450 2C19, 210 nM; against Cytochrome P450 1A2, 13000 nM. In addition, the values for the IC50 (in data set [7]; in [12]; on Cytochrome P450 2D6) were 14.6 nM, 1460 nM and 4000 nM, respectively. In addition, the inhibition in data set [6] worked out at 100%; in data set [9], 98%; in data set [11] it was 100%. In data set [8], the remaining at 0.5 h, 1 µM is 73%.

`Cc1ccc(OC(CC2CNC2)c2ccc(Cl)c(F)c2)cc1` (configuration not stated): the inhibition at 10 µM is 7.6% on CYP2C19; 10% at CYP2D6; 13% on CYP3A4; 19% at CYP2C9; 44% on CYP1A2. The IC50 in [3] was found to be 110 nM; in data set [4], 38.5 nM; in data set [7], 33.1 nM. The inhibition in [6] was found to be 100%; in data set [9] it was 97%; in data set [11], 100%. The remaining at 0.5 h, 1 µM in [8] worked out at 59%.

For the origin of these results see ChEMBL document CHEMBL3352322, “Synthesis and biological evaluation of 3-phenethylazetidine derivatives as triple reuptake inhibitors” (Bioorg Med Chem Lett, 2014).
